Laboratory results taken from ChEMBL document CHEMBL1154564 (J Nat Prod, 2000).

Key:
D(1A) dopamine receptor = D(1A) dopamine receptor (Rattus norvegicus, UniProt P18901); experiment: Displacement of [3H]SCH23390 from dopamine D1 receptor in Wistar rat striatal membrane; format: cell membranes, Striatum
D(2) dopamine receptor = D(2) dopamine receptor (Rattus norvegicus, UniProt P61169); experiment: Displacement of [3H]raclopride from dopamine D2 receptor in Wistar rat striatal membrane; format: cell membranes, Striatum
Sequence of D(2) dopamine receptor (P61169 whole entry): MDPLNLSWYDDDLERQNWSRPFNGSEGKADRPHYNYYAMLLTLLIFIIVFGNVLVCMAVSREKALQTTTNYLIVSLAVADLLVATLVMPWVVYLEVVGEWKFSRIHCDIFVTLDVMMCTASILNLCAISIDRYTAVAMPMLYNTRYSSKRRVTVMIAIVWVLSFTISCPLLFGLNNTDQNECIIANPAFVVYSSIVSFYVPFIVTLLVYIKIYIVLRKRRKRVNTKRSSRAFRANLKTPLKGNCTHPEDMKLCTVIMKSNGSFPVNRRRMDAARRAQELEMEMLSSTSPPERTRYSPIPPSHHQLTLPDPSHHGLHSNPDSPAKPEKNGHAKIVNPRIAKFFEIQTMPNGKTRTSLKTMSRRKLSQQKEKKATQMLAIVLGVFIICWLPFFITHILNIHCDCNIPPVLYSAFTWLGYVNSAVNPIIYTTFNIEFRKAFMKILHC

Rattus norvegicus [1] = species: Rattus norvegicus; experiment: Selectivity ratio of IC50 for Wistar rat dopamine D2 receptor to IC50 for Wistar rat dopamine D1 receptor
[2] = target: T1, Alpha-1A adrenergic receptor (Rattus norvegicus, UniProt P43140); experiment: Displacement of [3H]prazosin from adrenergic alpha1A receptor in rat brain membrane; format: cell membranes
T1 sequence (P43140 whole entry): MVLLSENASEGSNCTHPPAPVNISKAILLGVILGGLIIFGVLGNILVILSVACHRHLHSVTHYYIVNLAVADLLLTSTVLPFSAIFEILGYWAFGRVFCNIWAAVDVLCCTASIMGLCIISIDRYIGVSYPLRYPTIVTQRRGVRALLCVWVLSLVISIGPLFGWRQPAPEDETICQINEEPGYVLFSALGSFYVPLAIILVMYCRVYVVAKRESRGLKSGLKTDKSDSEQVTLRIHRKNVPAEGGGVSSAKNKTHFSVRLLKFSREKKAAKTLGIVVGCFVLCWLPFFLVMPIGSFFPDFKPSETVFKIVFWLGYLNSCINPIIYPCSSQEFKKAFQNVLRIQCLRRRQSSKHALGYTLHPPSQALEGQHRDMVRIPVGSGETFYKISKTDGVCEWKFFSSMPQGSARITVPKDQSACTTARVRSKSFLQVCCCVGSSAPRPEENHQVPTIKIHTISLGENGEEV

[3] = target: T2, Alpha-1B adrenergic receptor (Rattus norvegicus, UniProt P15823); experiment: Displacement of [3H]prazosin from adrenergic Alpha-1B receptor in rat brain membrane; format: cell membranes
T2 sequence (P15823 whole entry): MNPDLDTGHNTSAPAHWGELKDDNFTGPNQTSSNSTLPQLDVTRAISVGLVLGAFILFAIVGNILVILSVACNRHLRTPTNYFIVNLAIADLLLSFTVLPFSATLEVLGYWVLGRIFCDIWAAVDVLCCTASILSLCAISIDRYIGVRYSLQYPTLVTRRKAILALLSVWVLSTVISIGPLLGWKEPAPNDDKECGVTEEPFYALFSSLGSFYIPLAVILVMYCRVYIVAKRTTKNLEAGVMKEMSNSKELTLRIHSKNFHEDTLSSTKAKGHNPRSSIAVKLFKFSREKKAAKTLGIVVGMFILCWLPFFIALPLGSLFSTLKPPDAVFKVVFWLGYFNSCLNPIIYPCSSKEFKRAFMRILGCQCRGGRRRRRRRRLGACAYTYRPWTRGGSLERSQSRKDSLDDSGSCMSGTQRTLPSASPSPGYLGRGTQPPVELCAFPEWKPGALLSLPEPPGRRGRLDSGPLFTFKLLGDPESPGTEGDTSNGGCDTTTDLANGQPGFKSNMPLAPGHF

Rattus norvegicus [4] = species: Rattus norvegicus; experiment: Selectivity ratio of IC50 for rat adrenergic alpha1A receptor to IC50 for adrenergic Alpha-1B receptor

Sequence of D(1A) dopamine receptor (P18901 whole entry): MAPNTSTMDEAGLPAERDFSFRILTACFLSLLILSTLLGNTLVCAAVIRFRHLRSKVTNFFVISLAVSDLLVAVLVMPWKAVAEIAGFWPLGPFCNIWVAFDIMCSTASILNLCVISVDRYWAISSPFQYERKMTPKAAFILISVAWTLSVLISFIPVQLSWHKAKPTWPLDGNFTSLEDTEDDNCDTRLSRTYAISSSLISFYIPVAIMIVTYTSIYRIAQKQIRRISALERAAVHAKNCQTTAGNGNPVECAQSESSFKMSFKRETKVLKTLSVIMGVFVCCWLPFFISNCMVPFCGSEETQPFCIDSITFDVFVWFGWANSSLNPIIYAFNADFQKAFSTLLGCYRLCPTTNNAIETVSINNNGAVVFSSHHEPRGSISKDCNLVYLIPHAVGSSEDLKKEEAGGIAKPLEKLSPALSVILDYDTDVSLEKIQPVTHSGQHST

## COc1cc2c(cc1O)C[C@H]1c3c(c(Br)c(O)c(OC)c3-2)CCN1C [3-BROMOBOLDINE]
D(1A) dopamine receptor
  IC50: 66 nM
D(2) dopamine receptor
  IC50: 1050 nM
Rattus norvegicus [1]
  Ratio IC50: 15.9
[2]
  Ki: 1.17 nM
[3]
  Ki: 135 nM
Rattus norvegicus [4]
  Ratio: 120

## COc1cc2c(cc1O)C[C@H]1c3c(cc(O)c(OC)c3-2)CCN1C [BOLDINE]
[2]
  Ki: 4.9 nM
[3]
  Ki: 316 nM

## COc1cc2c(cc1O)C[C@H]1c3c(c(Cl)c(O)c(OC)c3-2)CCN1C
D(1A) dopamine receptor
  IC50: 81 nM
D(2) dopamine receptor
  IC50: 720 nM
Rattus norvegicus [1]
  Ratio IC50: 8.9
[2]
  Ki: 2.24 nM
[3]
  Ki: 269 nM
Rattus norvegicus [4]
  Ratio: 122

## COc1cc2c(cc1O)C[C@H]1c3c(c(I)c(O)c(OC)c3-2)CCN1C
D(1A) dopamine receptor
  IC50: 3 nM
D(2) dopamine receptor
  IC50: 96 nM
Rattus norvegicus [1]
  Ratio IC50: 32

## COc1cc2c(c(Br)c1O)C[C@H]1c3c(c(Br)c(O)c(OC)c3-2)CCN1C
D(1A) dopamine receptor
  IC50: 206 nM
D(2) dopamine receptor
  IC50: 1910 nM
Rattus norvegicus [1]
  Ratio IC50: 9.3
[2]
  Ki: 1.35 nM
[3]
  Ki: 120 nM
Rattus norvegicus [4]
  Ratio: 90
